Results as given in US20130203649A1, “INHIBITORS OF TLR SIGNALING BY TARGETING TIR DOMAIN INTERFACES” (UNIVERSITY OF MARYLAND, BALTIMORE, priority 2012, published 2013).
No end group written: not given here.

Biological target: T1, TLR4/TRAM (Mus musculus, UniProt Q9QUK6)
T1 construct: TLR4-Cer expression vector was described earlier (1); expressed in transfected cells; host or cells: HEK293T
T1 sequence (Q9QUK6 26-835): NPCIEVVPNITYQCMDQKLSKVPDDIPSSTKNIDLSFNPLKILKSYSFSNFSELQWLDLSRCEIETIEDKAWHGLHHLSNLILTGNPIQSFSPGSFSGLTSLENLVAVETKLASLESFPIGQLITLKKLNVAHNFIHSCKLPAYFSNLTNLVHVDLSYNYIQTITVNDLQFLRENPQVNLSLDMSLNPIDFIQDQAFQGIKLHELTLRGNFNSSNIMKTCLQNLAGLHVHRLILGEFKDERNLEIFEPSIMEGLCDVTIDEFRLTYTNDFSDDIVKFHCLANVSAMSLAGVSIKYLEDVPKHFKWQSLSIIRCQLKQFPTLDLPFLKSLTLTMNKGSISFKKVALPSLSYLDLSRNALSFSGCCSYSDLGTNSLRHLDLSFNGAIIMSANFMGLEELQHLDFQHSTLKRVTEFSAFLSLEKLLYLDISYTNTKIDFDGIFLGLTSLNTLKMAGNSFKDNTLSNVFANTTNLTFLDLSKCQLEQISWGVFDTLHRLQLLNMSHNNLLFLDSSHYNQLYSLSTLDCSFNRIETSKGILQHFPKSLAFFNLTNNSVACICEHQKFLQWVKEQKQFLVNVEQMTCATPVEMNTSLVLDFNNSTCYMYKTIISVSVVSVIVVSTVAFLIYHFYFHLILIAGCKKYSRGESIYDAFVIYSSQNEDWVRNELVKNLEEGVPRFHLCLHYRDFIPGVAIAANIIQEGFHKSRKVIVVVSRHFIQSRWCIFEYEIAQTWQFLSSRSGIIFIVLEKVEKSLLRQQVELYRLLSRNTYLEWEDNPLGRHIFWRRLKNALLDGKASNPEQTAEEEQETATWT
Assay: TLR4/TRAM coimmunoprecipitation in transfected HEK293T cells
Type: cell-based
Settings: 20 μM peptide, 1 h
Description: FIG. 9. TM4, TM6, and TR6 block adapter recruitment to TLR4. (A) A total of 6×10^5 HEK293T cells was transfected with 1 μg pcDNA3.1-mTLR4-Cer and pEF-BOS-mTRAM-HA. Twenty-four hours posttransfection, the cells were treated with 20 μM of each peptide for 1 h. Cell lysates were immunoprecipitated with anti-GFP Ab and blotted with anti-HA-HRP. (B) A total of 2×10^6 mouse peritoneal macrophages was pretreated with 20 μM of each peptide for 30 min prior to stimulation with 100 ng/ml LPS. Cell extracts were obtained 30 min after LPS treatment, immunoprecipitated with goat anti-TLR4 Ab, and blotted with rabbit anti-MyD88 or anti-TLR4 Ab. Data are representative of three independent experiments.
HEK293T cells were transfected with indicated plasmids using Superfect Transfection Reagent (Qiagen). […] Protein was quantified using Bio-Rad protein quantification kit. Equal amount of protein was loaded and analyzed by 10% SDS-PAGE and immunoblotting. The cell extracts containing equal amount of protein were incubated with 1 μg Ab for 2 h, followed by 4-h incubation with 25 μl protein G agarose beads (Roche); the beads were then washed four times with lysis buffer, boiled in […] sample loading buffer, and analyzed by immunoblotting. […]

RQIKIWFQNRRMKWKKPGFLRDPWCKYQML [TR6] was tested. Which TLR4/TRAM coimmunoprecipitation did it give?
Its TLR4/TRAM coimmunoprecipitation is “inhibited TLR4/TRAM association, although less efficiently than TM6”.
